How the values were obtained:
[1] = tested on: corrected F508del CFTR-expressing HBEs; assay: Ussing chamber Isc, forskolin plus VX-770-stimulated Cl- secretion; type: cell-based, human
Description: It has been proposed that, similar to potentiation of basolateral KCa3.1, potentiation of apical BKCa would further stimulate Cl^− secretion across HBEs by increasing the electrochemical driving force for Cl^− exit across the apical membrane ([18], [19]). To assess this possibility, we determined whether acute addition of VX-445 affects forskolin-mediated Cl^− secretion across primary WT CFTR-expressing HBEs, using Isc measurements. […] Note, as VX-445 is a lipophilic compound, it was added to both apical and basolateral membranes. The addition of bumetanide (20 µM) further reduced Isc, as expected. […] In a total of nine filters from three separate donors, VX-445 inhibited an average of 47 ± 2% of the current, subsequent to VX-661 (P < 0.01). […] The current observed following forskolin stimulation consists of both bumetanide-sensitive Cl^− secretion and bumetanide-insensitive HCO3− secretion ([32–34]). Thus, we determined whether VX-445 would inhibit the remaining current subsequent to bumetanide. […] Given the surprising inhibition of Cl^− secretion observed, we chose to stimulate Cl^− secretion via an alternate mechanism and assess the effect of VX-445. […] Thus, we determined the effect of VX-445 on the DCEBIO-induced Cl^− secretory response. […] We next determined whether VX-445 would similarly decrease the forskolin-stimulated transepithelial Cl^− currents in corrected F508del HBEs. […]

[2] = tested on: BKCa (KCa1.1, KCNMA1) channels; parameters: method as in PMID 38954478; settings: primary HBEs and HEK cells heterologously expressing the channel; cited from earlier work
[3] = tested on: WT CFTR HBEs; assay: Ussing chamber Isc, DCEBIO-induced Cl- secretion; type: cell-based, human; settings: VX-445 10 µM
Excerpt: Primary human bronchial epithelial cells (HBEs) were collected from unused or discarded samples from the Center for Organ Recovery and Education via the University of Pittsburgh Pulmonary, Allergy, Critical Care, and Sleep Medicine Lung Biobank and Repository. All experimental procedures involving the use of HBEs were approved by the institutional review board (IRB STUDY19090084) and the Committee for Oversight of Research and Clinical Training Involving Decedents (CORID number 451) at the University of Pittsburgh. At all times, authors were blind to the identity of HBE donors. HBEs were cultured using the Vertex method ([72]). Studies were carried out on WT CFTR HBEs from 11 ([13]) donors and homozygous F508del/F508del CFTR HBEs from five ([5]) separate donors. HBEs were plated on Costar Transwell permeable supports ([…], 6.5 mm insert, polyester membrane, Corning) and grown at an air–liquid interface for 5+ weeks in HBE differentiation medium containing 2% Ultroser-G. Basolateral media were replaced three times per week. For whole-cell patch-clamp studies, HBEs were maintained in BronchiaLife airway media (LifeLine Cell Technology, LS-1047) and plated onto poly-L-lysine-coated coverslips (see below).
Costar Transwell inserts were mounted in a modified Ussing chamber (P2300, Physiologic Instruments) and the monolayers continuously short-circuited (VCC MC8, Physiologic Instruments) by forcing the transepithelial voltage to 0 mV. Short-circuit current (Isc) measurements were taken in symmetric solutions, containing (in mM): 120 NaCl, 25 NaHCO3, 3.3 KH2PO4, 0.8 K2HPO4, 1.2 CaCl2, 1.2 MgCl2, and 10 glucose. The pH of the solution is 7.4 when gassed with 95% O2–5% CO2 at 37°C. Compounds were added cumulatively following the establishment of a new stable current response. Amiloride was added to the apical membrane, while all other compounds were added to both membranes due to their lipophilic nature. In all experiments, 10 µM amiloride was used to inhibit sodium absorption. Percent inhibition was calculated as the change in Isc (ΔIsc) between the forskolin or DCEBIO stable current level and the Isc following addition of the compound being assessed divided by the ΔIsc between the stable forskolin- or DCEBIO-induced Isc and the Isc following bumetanide addition.

Cc1nn(C)cc1S(=O)(=O)NC(=O)c1ccc(-n2ccc(OCC(C)(C)C(F)(F)F)n2)nc1N1C[C@@H](C)CC1(C)C [VX-445, elexacaftor]
Isc in the presence of VX-445 ([1]; Fig 1J, single filters, VX-445 10 µM after forskolin/VX-770): 10 | decrease in forskolin plus VX-770-stimulated Isc ([1]; acute VX-445 10 µM, F508del corrected overnight with VX-445 1 µM plus VX-661 3 µM, 35 filters from five donors): 64 ± 2% | effect on BKCa [2]: act as direct potentiators | inhibition at 10 µM ([3]; Homo sapiens, four donors, n = 12 (TRAM-34 series), read-out: inhibition of the DCEBIO-induced current): 69 ± 3% | decrease of the DCEBIO-induced Cl- current ([3]; n = 19): 54 ± 2%

— article PMC12275099, “VX-445 (elexacaftor) inhibits chloride secretion across human bronchial epithelial cells by directly blocking KCa3.1 channels” (PNAS Nexus, 2025)
